Experiments:
CDK7Cyclin H/MAT1 = target: T1, CDK7Cyclin H/MAT1 (Homo sapiens, UniProt P50613); experiment: Kinase inhibition assay with [γ-33P]ATP; type: biochemical; details: (YSPTSPS)2KK peptide, 1.5 μM ATP; read-out: IC50 values (μM) CDK7
T1 construct: purchased ProQinase GmbH

[1] = tested on: FLT3 (FLT3-ITD) in MV4-11 cells; experiment: Immunoblotting of FLT3 phosphorylation in MV4-11 cells; type: cell-based; details: MV4-11 FLT3-ITD cells, 1 hour treatment, immunoblotting (FIG. 1)
Description: Cells were exposed for 1 hour to the indicated concentrations of 264 or 270 and then levels of phosphorylations at specific tyrosine residues of FLT3 were analyzed.
To confirm kinase-inhibitory activity of novel compounds in cells, MV4-11 cells with FLT3-ITD and EOL-1 cells expressing FIP1L1-PDGFRA fusion protein were analyzed upon 1 hour treatment. Treated cells were harvested by centrifugation and homogenized in an extraction buffer (10 mM HEPES pH 7.4, 1 mM EDTA, 1 mM EGTA, 5 mM KC, 1.5 mM MgCl2, 0.5% NP40, supplemented with 1 mM DTT, 1 mM NaF, 0.1 mM Na3VO4, 1 mM PMSF, 0.5 μg/ml Leupeptin, 2 μg/ml Aprotinin) on ice for […]. The homogenates were clarified by centrifugation at 10,000 g for 30 min at 4° C., proteins were quantified by the Bradford method and then diluted to the same concentration. […] of total proteins were separated by SDS-polyacrylamide gel electrophoresis and transferred onto nitrocellulose membranes. […]

[2] = tested on: ERK1/2, STAT5 and STAT3 phosphorylation in EOL-1 cells; experiment: Immunoblotting of signaling downstream of PDGFR in EOL-1 cells; type: cell-based; details: 1 hour (FIG. 4)
Description: To confirm kinase-inhibitory activity of novel compounds in cells, MV4-11 cells with FLT3-ITD and EOL-1 cells expressing FIP1L1-PDGFRA fusion protein were analyzed upon 1 hour treatment. Treated cells were harvested by centrifugation and homogenized in an extraction buffer (10 mM HEPES pH 7.4, 1 mM EDTA, 1 mM EGTA, 5 mM KC, 1.5 mM MgCl2, 0.5% NP40, supplemented with 1 mM DTT, 1 mM NaF, 0.1 mM Na3VO4, 1 mM PMSF, 0.5 μg/ml Leupeptin, 2 μg/ml Aprotinin) on ice for […]. The homogenates were clarified by centrifugation at 10,000 g for 30 min at 4° C., proteins were quantified by the Bradford method and then diluted to the same concentration. […] of total proteins were separated by SDS-polyacrylamide gel electrophoresis and transferred onto nitrocellulose membranes. Membranes were blocked in 5% BSA in TBS with 0.1% Tween 20 and probed overnight with specific antibodies for FLT3 (clone 8F2), phospho-FLT3 Y589/591 (30D4), phospho-FLT3 Y591 (33G6), phospho-FLT3 Y842 (10A8), phospho-FLT3 Y969 (C24D9), PDGFRA (D1E1E), phospho-PDGFRA Y849/PDGFRB Y857 (C43E9), phospho-PDGFRA Y1018, p44/42 MAPK (ERK1/2), phospho-p44/42 MAPK (ERK1/2) (Thr202/Tyr204), STAT5, Phospho-STAT5(Tyr694), STAT3 (79D7), phospho-STAT3 (Tyr705) (D3A7), MEK1/2 (D1A5), phospho-MEK1/2 (Ser217/221) purchased from Cell Signaling, USA, α-tubulin (DM1A, Sigma Aldrich, USA) and PCNA (PC-10, gifted by Dr. B. Vojtesek). […]

[3] = tested on: FLT3 phosphorylation in MV4-11 xenograft; experiment: MV4-11 xenograft target modulation, pFLT3 immunoblot; type: in vivo, mice
Description: (§1) Female athymic nu/nu mice (8 weeks old) were subcutaneously implanted with 5×10^6 MV4-11 cells in 1:1 mixture with Matrigel (High concentration basement membrane Matrigel, Corning) into the hind flank on day 0. Tumors were allowed to growth to the volume of 500-800 mm^3. Body weight and tumor size were recorded 3 times a week. Mice were randomized to treatment groups, 4 to 5 mice each, for target modulation studies.
(§2) Mice were sacrificed at 2 time points (2 hours and 24 hours) after treatment. Tumors were resected and mechanically disintegrated. Cells were washed twice with PBS (lx), then lysed in ice-cold lysis buffer (10 mM HEPES pH 7.4, 1 mM EDTA, 1 mM EGTA, 5 mM KCl, 1.5 mM MgCl2) supplemented with protease and phosphatase inhibitors (10 mM β-glycerolphosphate; 1 mM NaF; 0.1 mM Na3VO4; 0.1 mM PMSF; 10 μg/ml Leupeptin; 2 μg/ml Aprotinin; 1 mM DTT) and cleared by centrifugation. Samples (50 μg of total protein amount) were separated on SDS-PAGE, followed by transfer of the separated proteins to nitrocellulose membrane.

[4] = tested on: STAT5 phosphorylation in MV4-11 xenograft; experiment: MV4-11 xenograft target modulation, pSTAT5 immunoblot; type: in vivo, mice; details: single dose 10 mg/kg intraperitoneal, after 24 hours
Description: as §1, §2

T1 sequence (P50613 whole entry): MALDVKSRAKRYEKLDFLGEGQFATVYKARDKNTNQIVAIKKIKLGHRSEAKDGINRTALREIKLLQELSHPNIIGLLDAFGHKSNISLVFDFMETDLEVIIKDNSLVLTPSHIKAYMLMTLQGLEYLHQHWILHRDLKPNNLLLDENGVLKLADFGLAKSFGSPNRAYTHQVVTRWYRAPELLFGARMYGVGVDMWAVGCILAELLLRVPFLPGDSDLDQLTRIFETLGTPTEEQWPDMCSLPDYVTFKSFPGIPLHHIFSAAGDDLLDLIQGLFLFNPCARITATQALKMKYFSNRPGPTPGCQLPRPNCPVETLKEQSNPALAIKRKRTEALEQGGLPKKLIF
T1 sequence (P51946 whole entry partner): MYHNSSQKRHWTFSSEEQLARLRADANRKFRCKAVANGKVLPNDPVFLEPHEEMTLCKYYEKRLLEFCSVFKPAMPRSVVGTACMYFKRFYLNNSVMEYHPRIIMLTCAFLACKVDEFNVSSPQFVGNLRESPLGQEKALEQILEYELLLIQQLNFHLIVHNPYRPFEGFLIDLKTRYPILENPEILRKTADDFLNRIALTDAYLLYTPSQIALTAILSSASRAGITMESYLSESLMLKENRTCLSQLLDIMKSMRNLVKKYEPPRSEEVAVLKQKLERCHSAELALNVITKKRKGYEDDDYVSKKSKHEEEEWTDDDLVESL
T1 sequence (P51948 whole entry partner): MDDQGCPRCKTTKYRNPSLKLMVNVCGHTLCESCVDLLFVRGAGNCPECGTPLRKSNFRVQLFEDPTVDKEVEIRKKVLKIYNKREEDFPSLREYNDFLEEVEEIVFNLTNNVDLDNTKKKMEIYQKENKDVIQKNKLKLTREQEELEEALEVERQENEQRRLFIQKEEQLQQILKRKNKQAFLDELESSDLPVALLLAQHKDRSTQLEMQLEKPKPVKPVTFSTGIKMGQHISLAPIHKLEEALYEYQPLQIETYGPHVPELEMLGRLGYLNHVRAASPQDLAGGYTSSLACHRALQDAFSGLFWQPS

Row | SMILES | IC50 (CDK7Cyclin H/MAT1) | phosphorylation of tyrosine residues of FLT3 receptor kinase (including Y589, Y591, Y742) [1] | phosphorylation of ERK1/2, STAT5 and STAT3 [2] | inhibition of pFLT3 in tumor ([3]; nu/nu mice, single dose 10 mg/kg intraperitoneal, 2 hours after administration) | pFLT3 level in tumor at 24 hours ([3]; single dose 10 mg/kg (264 intraperitoneal, Quizartinib oral gavage), 24 hours) | reduction of pSTAT5 level in tumor [4]
1 | CN1CC2(C1)CN(c1ccc(Nc3nc(NC4CCC(O)CC4)nc4c3ncn4C3CCCC3)cc1)C2 (stereo not drawn) [Compound 7] | 0.197 µM |  |  |  |  | 
2 | NC1CCC(Nc2nc(Nc3ccc(CN4CCOCC4)cc3)c3ncn(C4CCCC4)c3n2)CC1 (stereo not drawn) [Compound 264] | 0.178 µM | cellular FLT3 dephosphorylation | reduced phosphorylation | 95% | the inhibition sustained 24 hours | more than 95%
3 | NCCCCNc1nc(Nc2ccc(CN3CCOCC3)cc2)c2ncn(C3CCCC3)c2n1 [Compound 270] |  | cellular FLT3 dephosphorylation | reduced phosphorylation |  |  | 
